The nature of test [1]: RSV cytopathic effect inhibition, dose response, cell-based, synthesized compounds, set 10 (AID 504827). As to conditions: RSV-infected cells, CPE inhibition; at 200 µM (top of the series).
The test system of test [2] is RSV-infected cells, CPE inhibition. Described as above.

Each structure is given as a SMILES string. Active and inactive are the calls of the source. How the calls were made is not given here.

The source of these data is PubChem BioAssay AID504827 (Southern Research Specialized Biocontainment Screening …, 2011).

As a reminder, the IC50 is the concentration at which inhibition is half-maximal.

Consider `Cc1cc(NC(=O)[C@@H]2CCCN2S(=O)(=O)c2cccc3cccnc23)n(C(C)(C)C)n1`, for which the CPE inhibition in test [1] was 4.92% (inactive).

In the case of `Cc1ccc(NC(=O)[C@@H]2CCCN2S(=O)(=O)c2cccc3cccnc23)c(C)c1`, the IC50 in test [2] was 2.1 µM.

For the compound `COc1ccc(C)c(NC(=O)[C@@H]2CCCN2S(=O)(=O)c2cccc3cccnc23)c1`, the IC50 in test [2] was 4.6 µM.

Regarding `Cc1ccc(Cn2c(=O)n(Cc3ccc(C(=O)Nc4ccncc4)cc3)c(=O)c3ccccc32)cc1`, the IC50 in test [2] is 9.9 µM.
